{"source": "patent US20100190645A1", "about": "(priority 2007, published 2010)", "type_in_all_cases": "cell-based", "key": {"[1]": {"tested_on": "Ustilago avenae", "assay": "Ustilago avenae test (in vitro)/microtest", "details": "single active compound, 4 days incubation, optical density", "method": "Ustilago avenae—Test (In Vitro)/Microtest\n(§1) The microtest was performed in liquid medium with potato-dextrose broth (PDB) using microtitre plates.\n(§2) The active compound is applied as the technical active substance dissolved in methanol.\nA spore suspension of Ustilago avenae was used for inoculation. After 4 days of incubation by darkness under shaking (10 Hrz), the optical density in each cavity was evaluated with the aid of a microtitre plate reader.\n(§3) 0% means an efficacy which corresponds to that of the control, while an efficacy of 100% means that no fungal growth is observed."}, "[2]": {"tested_on": "Phytophthora cryptogea", "assay": "Phytophthora cryptogea test (in vitro)/microtest", "details": "single active compound, 0.3 ppm, 3 days incubation, optical density", "method": "Phytophthora cryptogea—Test (In Vitro)/Microtest\nas §1, §2\nA mycelium suspension of Phytophthora ayptogea was used for inoculation. After 3 days of incubation by darkness under shaking (10 Hrz), the optical density in each cavity was evaluated with the aid of a microtitre plate reader.\nas §3"}, "[3]": {"tested_on": "Pyricularia oryzae", "details": "single active compound, 0.3 ppm, 4 days incubation, optical density"}}, "data": [{"smiles": "CC(C)(C)C(O)(CCc1ccc(Cl)cc1)Cn1cncn1", "note": "(centres unmarked) [Tebuconazole, tebuconazole]", "values": [{"measurement": "Efficacy in %", "setting": "[1]; Example D, 0.1 ppm", "result": 96, "unit": "%"}]}, {"smiles": "COCC(=O)N(c1c(C)cccc1C)C(C)C(=O)OC", "note": "(centres unmarked) [Metalaxyl, metalaxyl]", "values": [{"measurement": "Efficacy in %", "setting": "[2]", "result": 48, "unit": "%"}]}, {"smiles": "COc1ccc(-c2coc3cc(O)ccc3c2=O)cc1", "note": "[Formononetin]", "values": [{"measurement": "Efficacy in %", "setting": "[1]; Example B, 0.01 ppm", "result": 13, "unit": "%"}, {"measurement": "Efficacy in %", "setting": "[1]; Example D, 0.1 ppm", "result": 17, "unit": "%"}, {"measurement": "Efficacy in %", "setting": "[2]", "result": 14, "unit": "%"}, {"measurement": "Efficacy in %", "setting": "[3]", "result": 11, "unit": "%"}]}, {"smiles": "CO/N=C(/C(=O)OC)c1ccccc1CO/N=C(\\C)c1cccc(C(F)(F)F)c1", "note": "[Trifloxystrobin, trifloxystrobin]", "values": [{"measurement": "Efficacy in %", "setting": "[3]", "result": 56, "unit": "%"}]}, {"smiles": "Cc1nn(C)c(F)c1C(=O)Nc1ccccc1C(C)CC(C)C", "note": "(centres unmarked) [BYF 14182]", "values": [{"measurement": "Efficacy in %", "setting": "[1]; Example B, 0.01 ppm", "result": 95, "unit": "%"}]}]}
